Measured values: PubChem BioAssay (NCI)
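1) Cells in 96-well plates. 2) Compound, 48 h, 5 concentrations. 3) Linear interpolation between surrounding doses. 4) Unreached endpoint = highest concentration. GI50 = concentration required for 50% inhibition of growth. TGI denotes the concentration required for complete inhibition of growth.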

Assays:
Experiment in all cases: inhibition of tumour cell growth, NCI panel, 48 h
[1] = test system: NCI-H226 lung
[2] = test system: TK-10 renal
[3] = test system: M14 melanoma
[4] = test system: MDA-MB-231 breast
[5] = test system: HL-60(TB) leukemia
[6] = test system: HCC-2998 colon
[7] = test system: OVCAR-8 ovarian
[8] = test system: DU-145 prostate
[9] = test system: UO-31 renal
[10] = test system: T-47D breast
[11] = test system: HOP-62 NSCLC
[12] = test system: SK-MEL-2 melanoma
[13] = test system: ACHN renal
[14] = test system: SK-OV-3 ovarian
[15] = test system: SNB-19 CNS
[16] = test system: SK-MEL-5 melanoma
[17] = test system: SN12C renal
[18] = test system: BT-549 breast
[19] = test system: SK-MEL-28 melanoma
[20] = test system: A498 renal
[21] = test system: UACC-257 melanoma
[22] = test system: CAKI-1 renal
[23] = test system: MDA-MB-468 breast
[24] = test system: OVCAR-3 ovarian
[25] = test system: RXF 393 renal
[26] = test system: HOP-92 NSCLC
[27] = test system: HCT-15 colon
[28] = test system: RPMI-8226 leukemia
[29] = test system: K-562 leukemia
[30] = test system: 786-0 renal
[31] = test system: MDA-MB-435
[32] = test system: PC-3 prostate
[33] = test system: MCF7 breast
[34] = test system: LOX IMVI melanoma
[35] = test system: SNB-75 CNS
[36] = test system: KM12 colon
[37] = test system: NCI/ADR-RES ovarian
[38] = test system: MALME-3M melanoma
[39] = test system: SF-268 CNS
[40] = test system: NCI-H23 lung
[41] = test system: A549 NSCLC
[42] = test system: U251 CNS
[43] = test system: UACC-62 melanoma
[44] = test system: OVCAR-5 ovarian
[45] = test system: MOLT-4 leukemia
[46] = test system: HS 578T breast
[47] = test system: CCRF-CEM leukemia
[48] = test system: IGROV1 ovarian
[49] = test system: COLO 205 colon
[50] = test system: SF-295 CNS
[51] = test system: HT29 colon
[52] = test system: OVCAR-4 ovarian
[53] = test system: SF-539 CNS
[54] = test system: HCT-116 colon
[55] = test system: EKVX NSCLC

Question: What does the source list for `Nc1cc(-c2c[nH]c3ccc(Cl)cc23)nc2cc(-c3c[nH]c4ccccc34)nn12`?
Answer: GI50 [1]: 3.52 µM; TGI [1]: 28 µM; GI50 [2]: 2.9 µM; TGI [2]: 13.3 µM; GI50 [3]: 1.85 µM; TGI [3]: 4.17 µM; GI50 [4]: 1.96 µM; TGI [4]: 3.6 µM; GI50 [5]: 2.09 µM; TGI [5]: 7.43 µM; GI50 [6]: 1.86 µM; TGI [6]: 3.6 µM; GI50 [7]: 3.19 µM; TGI [7]: 17.3 µM; GI50 [8]: 3.56 µM; TGI [8]: 12.9 µM; GI50 [9]: 2.59 µM; TGI [9]: 10.4 µM; GI50 [10]: 2.61 µM; GI50 [11]: 3.1 µM; TGI [11]: 10.7 µM; GI50 [12]: 2.28 µM; TGI [12]: 6.05 µM; GI50 [13]: 2.76 µM; TGI [13]: 7.77 µM; GI50 [14]: 6.25 µM; TGI [14]: 20 µM; GI50 [15]: 2.95 µM; TGI [15]: 10.7 µM; GI50 [16]: 2.05 µM; TGI [16]: 4.42 µM; GI50 [17]: 3.63 µM; TGI [17]: 14.3 µM; GI50 [18]: 4.98 µM; TGI [18]: 17.9 µM; GI50 [19]: 1.87 µM; TGI [19]: 4.23 µM; GI50 [20]: 2.09 µM; TGI [20]: 7.69 µM; GI50 [21]: 2.99 µM; TGI [21]: 12.2 µM; GI50 [22]: 1.99 µM; TGI [22]: 5.28 µM; GI50 [23]: 1.45 µM; TGI [23]: 3.2 µM; GI50 [24]: 2.9 µM; TGI [24]: 10.5 µM; GI50 [25]: 2.23 µM; TGI [25]: 6.61 µM; GI50 [26]: 2.1 µM; TGI [26]: 5.65 µM; GI50 [27]: 1.61 µM; TGI [27]: 3.24 µM; GI50 [28]: 2.29 µM; TGI [28]: 6.98 µM; GI50 [29]: 2.15 µM; TGI [29]: 5.7 µM; GI50 [30]: 1.67 µM; TGI [30]: 3.67 µM; GI50 [31]: 2.42 µM; TGI [31]: 7.27 µM; GI50 [32]: 2.59 µM; TGI [32]: 7.89 µM; GI50 [33]: 1.83 µM; TGI [33]: 3.96 µM; GI50 [34]: 1.75 µM; TGI [34]: 3.22 µM; GI50 [35]: 1.71 µM; TGI [35]: 9.69 µM; GI50 [36]: 2.02 µM; TGI [36]: 4.27 µM; GI50 [37]: 3.45 µM; TGI [37]: 14.7 µM; GI50 [38]: 1.78 µM; TGI [38]: 3.23 µM; GI50 [39]: 2.75 µM; TGI [39]: 12.7 µM; GI50 [40]: 2.23 µM; TGI [40]: 5.5 µM; GI50 [41]: 2.76 µM; TGI [41]: 12.1 µM; GI50 [42]: 1.8 µM; TGI [42]: 4.22 µM; GI50 [43]: 1.72 µM; TGI [43]: 3.55 µM; GI50 [44]: 1.9 µM; TGI [44]: 4.32 µM; GI50 [45]: 1.86 µM; TGI [45]: 5.04 µM; GI50 [46]: 3.25 µM; TGI [46]: 16.4 µM; GI50 [47]: 2.99 µM; TGI [47]: 9.39 µM; GI50 [48]: 3.34 µM; TGI [48]: 12.7 µM; GI50 [49]: 1.75 µM; TGI [49]: 3.6 µM; GI50 [50]: 1.81 µM; TGI [50]: 3.61 µM; GI50 [51]: 2.04 µM; TGI [51]: 4.62 µM; GI50 [52]: 3.65 µM; TGI [52]: 17.1 µM; GI50 [53]: 1.81 µM; TGI [53]: 3.47 µM; GI50 [54]: 1.67 µM; TGI [54]: 3.12 µM; GI50 [55]: 2.44 µM; TGI [55]: 8.51 µM
